According to patent US20170246236A1, “METHODS AND COMPOSITIONS FOR ENHANCED DELIVERY OF COMPOUNDS” (Sanford Burnham Prebys Medical Discovery Institute, priority 2010, published 2017):
Residues, ends and D or L forms follow the SMILES beside them.

Key:
purified mitochondria = experiment: Peptide/phage binding to purified mitochondria; parameters: species or system mouse; conditions: increasing concentrations of unlabeled peptide
Description: Isolation of mitochondria and peptide/phage binding. Mitochondria were isolated from livers of Balb/c mice using differential centrifugation with buffers from a Pierce mitochondrial isolation kit for tissue according to the manufacture's instruction (Pierce Biotechnology, Rockford, Ill.). To test the binding of the CGKRK peptide to mitochondria, purified mitochondria were pre-incubated with various concentrations of non-labeled CGKRK or control peptide (CREKA; SEQ ID NO:92) for 30 min 4° C. FAM-CGKRK was then added and incubated for an additional 1 hour. The binding of the FAM peptide was quantified by fluorescence. In phage binding assays, purified mitochondria were suspended in 10 ml DMEM supplemented with 1% BSA, and incubated with 5×10^8 plaque-forming units (pfu) of peptide-displaying phage, overnight at 4° C. The mitochondria were washed 3 times with DMEM/BSA, the phage were collected with lysogeny broth containing 1% NP-40, and quantified by plaque assay.

[1] = test system: proteins from brain tumor extracts; experiment: CGKRK-binding proteins in glioblastoma tumor extracts (affinity matrix); conditions: mass spectrometry
Source text: Proteins from brain tumor extracts were bound to insolubilized (SulfoLink Resin; Pierce Biotechnology) CGKRK peptide. Proteins were eluted from the affinity matrix with either CGKRK peptide or with CREKA (SEQ ID NO:92) peptide (negative control). Silver-stained gels were used to show the proteins eluted with CGKRK and CREKA (SEQ ID NO:92). […] The bands in the CGKRK eluate were identified by mass spectrometry as the proteins listed.

mitochondria in HUVEC = experiment: Live cell imaging, co-localization with mitochondrial marker; type: cell-based, human
Description: (§1) Cell proliferation assay and imaging. The MTT [3-[4,5-dimethylthazol-2-yl]-2,5-diphenyl tetrazolium-bromide] assay (Molecular Probes, Eugene, Oreg.) was used to quantify cell proliferation. Cells were seeded in complete medium into 96-well plates (5×10^3 cells/well), and allowed to attach overnight at 37° C. in a humidified 5% CO2 atmosphere. The culture media was then removed and various concentrations of peptides or NWs were added. After 48, and 72 hours, 10 μL of the MTT reagent (5 mg/mL in PBS) was added to each well. The medium was removed from cells after 3 hours, and […] of DMSO:MEOH (1:1 v/v) were added to each well. The plates were read at a wavelength of 595 nm. For live cell imaging, cells seeded on glass-bottom plates (Willco, Amsterdam, Netherlands), and 24 hours later, the cells were washed and incubated with FAM-labeled peptides or NWs for 45 min at 37° C. The cells were then rinsed three times with PBS and incubated for an additional 15 min at 37° C. with […] MitoTracker Red (Molecular Probes, Eugene, Oreg.) followed by nuclear staining with Hoechst 33342 DNA dyes (Molecular Probe, Eugene, Oreg.) for 12 min. The cells were analyzed with Fluoview FV 500 confocal microscopy (Olympus America, Center Valley, Pa.).

[2] = test system: mitochondria in U87 cells; experiment: as above; type: cell-based, human
Description: as §1

GBM tumors = experiment: In vivo peptide homing; parameters: species or system mouse; conditions: 200 μg Rd-labeled peptide i.v., 3 hours, 005 tumor mice
Description: In vivo peptide homing. […] Rhodamine-labeled CGKRK (200 μg) was intravenously injected into the mice and allowed to circulate for 3 hours. The mice were perfused with PBS through the heart under anesthesia, and tissues were collected and processed for fluorescence analysis.

| Molecule | co-localization with mitochondria (mitochondria in HUVEC) | co-localization with mitochondria [2] | further results |
| --- | --- | --- | --- |
| CREKA: Unrelated control peptide, SEQ ID NO:92 (clot binding/homing peptide) | – | – | inhibition of FAM-CGKRK binding to mitochondria by unlabeled peptide (purified mitochondria): not; proteins eluted from CGKRK affinity matrix [1]: failed to elute any visible protein bands |
| CC(C)C[C@@H](NC(=O)[C@H](N)CCCCN)C(=O)N[C@H](C)C(=O)N[C@H](CCCCN)C(=O)N[C@H](CC(C)C)C(=O)N[C@H](C)C(=O)N[C@H](CCCCN)C(=O)N[C@H](CCCCN)C(=O)N[C@H](CC(C)C)C(=O)N[C@H](C)C(=O)N[C@H](CCCCN)C(=O)N[C@H](CC(C)C)C(=O)N[C@H](C)C(=O)N[C@H](CCCCN)C(=O)N[C@@H](CS)C(=O)NCC(=O)N[C@@H](CCCCN)C(=O)N[C@@H](CCCNC(=N)N)C(=O)N[C@@H](CCCCN)C(=O)O [CGKRK-D[KLAKLAK]2 peptide] | colocalized with mitochondria | colocalized with mitochondria | – |
| N=C(N)NCCC[C@H](NC(=O)[C@H](CCCCN)NC(=O)CNC(=O)[C@@H](N)CS)C(=O)N[C@@H](CCCCN)C(=O)O [CGKRK, Cys-Gly-Lys-Arg-Lys] (H-CGKRK-OH) | – | – | peptide in normal tissues (GBM tumors): not in normal tissues; peptide in normal tissues (GBM tumors; listed as CGKRK peptide): appeared in kidney but not in heart, pancreas, liver, lung, or spleen |
| D[KLAKLAK]2: α-helical amphipathic pro-apoptotic peptide, SEQ ID NO:3 (KLAKLAKKLAKLAK; D-amino acids; membrane perturbing molecule) [reference compound] | did not | did not | – |
